The text below walks through data of patent publication US8404718B2, “Combinations of pyrazole kinase inhibitors” (Astex Therapeutics Limited, priority 2005, dated 2013).

Each structure is given as a SMILES string.

One assay has as its system human colon carcinoma cell line HCT 116. The assay is described as follows: Anti-proliferative activity, Alamar Blue assay. The assay is classed as cell-based. Conditions: 72 hours compound incubation, read-out: IC50, inhibition of cell growth, HCT 116. The method, then: The anti-proliferative activities of the combinations of the invention, as well as the individual components of the combinations, are determined by measuring the ability of the compounds to inhibition of cell growth in a number of cell lines. Inhibition of cell growth is measured using the Alamar Blue assay (Nociari, M. M, Shalev, A., Benias, P., Russo, C. Journal of Immunological Methods 1998, 213, 157-167). The method is based on the ability of viable cells to reduce resazurin to its fluorescent product resorufin. For each proliferation assay cells are plated onto 96 well plates and allowed to recover for 16 hours prior to the addition of inhibitor compounds for a further 72 hours. At the end of the incubation period 10% (v/v) Alamar Blue is added and incubated for a further 6 hours prior to determination of fluorescent product at […]. In the case of the non-proliferating cell assay cells are maintained at confluence for 96 hour prior to the addition of inhibitor compounds for a further 72 hours. The number of viable cells is determined by Alamar Blue assay as before. All cell lines are obtained from ECACC (European Collection of cell Cultures).
(The colour change of resazurin is a common sign of viable cells or microbes.)
By IC50 is commonly meant the concentration at which inhibition is half-maximal. As for `O=C(Nc1ccc(F)cc1)c1n[nH]cc1NC(=O)C(F)(F)F` [Example 3, 4-(2,2,2-Trifluoro-acetylamino)-1H-pyrazole-3-carboxylic acid (4-fluoro-phenyl)-amide], the IC50 was below 100 µM.

With `O=C(CCc1ccc(Cl)cc1)Nc1c[nH]nc1C(=O)Nc1ccc(F)cc1` [Example 10, 4-[3-(4-Chloro-phenyl)-propionylamino]-1H-pyrazole-3-carboxylic acid (4-fluoro-phenyl)-amide], the IC50 was below 20 µM. For `COc1ccccc1C(=O)Nc1c[nH]nc1C(=O)Nc1ccc(F)cc1` [Example 25, 4-(2-Methoxy-benzoylamino)-1H-pyrazole-3-carboxylic acid (4-fluoro-phenyl)-amide], the IC50 was below 20 µM. Same read-out and setting: with `O=C(Nc1ccc(F)cc1)c1n[nH]cc1NC(=O)C1CCCCC1` [Example 27, 4-(Cyclohexanecarbonyl-amino)-1H-pyrazole-3-carboxylic acid (4-fluoro-phenyl)-amide] the figure was below 20 µM; with `O=C(CO)Nc1c[nH]nc1C(=O)Nc1ccc(F)cc1` [Example 29, 4-(2-Hydroxy-acetylamino)-1H-pyrazole-3-carboxylic acid (4-fluoro-phenyl)-amide], below 100 µM.

For the compound `O=C(Nc1c[nH]nc1C(=O)Nc1ccc(F)cc1)c1ccco1` [Example 38, 4-[(Furan-2-carbonyl)-amino]-1H-pyrazole-3-carboxylic acid (4-fluoro-phenyl)-amide], the IC50 is below 100 µM. Same read-out and setting: the same measure for `O=C(Nc1c[nH]nc1C(=O)Nc1ccc(F)cc1)c1cnc[nH]1` [Example 39, 4-[(3H-Imidazole-4-carbonyl)-amino]-1H-pyrazole-3-carboxylic acid (4-fluoro-phenyl)-amide]: below 100 µM. `O=C(Nc1c[nH]nc1C(=O)Nc1ccc(F)cc1)c1ccc(CO)cc1` [Example 44, 4-(4-Hydroxymethyl-benzoylamino)-1H-pyrazole-3-carboxylic acid (4-fluoro-phenyl)-amide]: the IC50 is below 20 µM. Same read-out and setting: the same measure for `Cc1ccccc1C(=O)Nc1c[nH]nc1C(=O)Nc1ccc(F)cc1` [Example 46, 4-(2-Methyl-benzoylamino)-1H-pyrazole-3-carboxylic acid (4-fluoro-phenyl)-amide]: below 20 µM; for `O=C(Nc1c[nH]nc1C(=O)Nc1ccc(F)cc1)c1ccc2ccccc2n1` [Example 49, Quinoline-2-carboxylic acid[3-(4-fluoro-phenylcarbamoyl)-1H-pyrazol-4-yl]-amide]: below 100 µM; for `O=C(Nc1c[nH]nc1C(=O)Nc1ccc(F)cc1)c1ccsc1` [Example 50, 4-[(Thiophene-3-carbonyl)-amino]-1H-pyrazole-3-carboxylic acid (4-fluoro-phenyl)-amide]: below 20 µM. On the same count and under the same terms, with `COc1cccc(C(=O)Nc2c[nH]nc2C(=O)Nc2ccc(F)cc2)c1F` [Example 51, 4-(2-fluoro-3-methoxy-benzoylamino)-1H-pyrazole-3-carboxylic acid (4-fluoro-phenyl)-amide] the figure was below 100 µM; with `O=C(Nc1c[nH]nc1C(=O)Nc1ccc(F)cc1)c1ccccc1OCCN1CCCC1` [Example 52, 4-[2-(2-Pyrrolidin-1-yl-ethoxy)-benzoylamino]-1H-pyrazole-3-carboxylic acid 4-fluorophenylamide], below 20 µM.

For `COc1cccc(OC)c1C(=O)Nc1c[nH]nc1C(=O)Nc1ccc(F)cc1` [Example 60], the IC50 was below 20 µM.

As for `O=C(NC1CCOCC1)c1n[nH]cc1NC(=O)c1c(F)cccc1F` [Example 66], the IC50 was below 20 µM. On the same count and under the same terms, with `O=C(NCC1CCOCC1)c1n[nH]cc1NC(=O)c1c(F)cccc1F` [Example 67] the figure was below 20 µM; with `O=C(NCC1CCCCC1)c1n[nH]cc1NC(=O)c1c(F)cccc1F` [Example 69], below 20 µM; with `O=C(Nc1cccc(CO)c1)c1n[nH]cc1NC(=O)c1c(F)cccc1F` [Example 73], below 20 µM. The same measure, in the same setting: with `O=C(Nc1cccc(CN2CCOCC2)c1)c1n[nH]cc1NC(=O)c1c(F)cccc1F` [Example 74] the figure was below 20 µM.

For `O=C(NC1CCCC1)c1n[nH]cc1NC(=O)c1c(F)cccc1F` [Example 75], the IC50 is below 20 µM. The same measure, in the same setting: with `O=C(NCC1CC1)c1n[nH]cc1NC(=O)c1c(F)cccc1F` [Example 79] the figure was below 20 µM; with `Cc1[nH]nc(C(=O)Nc2ccc(F)cc2)c1NC(=O)c1c(F)cccc1F` [Example 80], below 20 µM; with `CCOC(=O)C1CCC(NC(=O)c2n[nH]cc2NC(=O)c2c(F)cccc2F)CC1` (centres unmarked) [Example 83A, 4-{[4-(2,6-difluoro-benzoylamino)-1H-pyrazole-3-carbonyl]-amino}-cyclohexanecarboxylic acid ethyl ester], below 20 µM. As to `O=C(NC1CCN(Cc2ccccc2)C1)c1n[nH]cc1NC(=O)c1c(F)cccc1F` (centres unmarked) [Example 85], the IC50 is below 100 µM. Turning to `O=C(NCc1ccccn1)c1n[nH]cc1NC(=O)c1c(F)cccc1F` [Example 89], the IC50 is below 100 µM. Still for that read-out and setting: with `O=C(NCc1ccccc1)c1n[nH]cc1NC(=O)c1c(F)cccc1F` [Example 90] the figure was below 20 µM; with `O=C(NCc1ccccc1Cl)c1n[nH]cc1NC(=O)c1c(F)cccc1F` [Example 91], below 20 µM.

Regarding `O=C(NCc1ccccc1F)c1n[nH]cc1NC(=O)c1c(F)cccc1F` [Example 92], the IC50 was below 20 µM. The same measure, in the same setting: the same measure for `O=C(NC1CCC(O)CC1)c1n[nH]cc1NC(=O)c1c(F)cccc1F` (centres unmarked) [Example 95]: below 20 µM. On the same count and under the same terms, with `CC(C)(C)OC(=O)N1CCCC(CNC(=O)c2n[nH]cc2NC(=O)c2c(F)cccc2F)C1` (centres unmarked) [Example 97] the figure was below 20 µM; with `O=C(NCC1CCCNC1)c1n[nH]cc1NC(=O)c1c(F)cccc1F` (centres unmarked) [Example 98], below 20 µM. Same read-out and setting: with `O=C(NC1CCNCC1)c1n[nH]cc1NC(=O)c1c(Cl)cccc1Cl` [Example 150] the figure was below 20 µM.

For the compound `O=C(Nc1cc(F)ccc1OCCN1CCCC1)c1n[nH]cc1NC(=O)c1c(F)cccc1F` [Example 166, 4-(2,6-Difluoro-benzoylamino)-1H-pyrazole-3-carboxylic acid[5-fluoro-2-(2-pyrrolidin-1-yl-ethoxy)-phenyl]-amide], the 50% inhibitory concentration (IC50) was below 20 µM. The same measure, in the same setting: the same measure for `Cn1nc(C(C)(C)C)cc1C(=O)Nc1c[nH]nc1C(=O)NCC1CC1` [Example 183]: below 100 µM; for `O=C(NC1CCNC1)c1n[nH]cc1NC(=O)c1c(F)cccc1F` (centres unmarked) [Example 185]: below 20 µM; for `O=C(Nc1c[nH]nc1C(=O)NC1CCNCC1)c1cccc2c1OCCO2` [Example 192]: below 20 µM. Still for that read-out and setting: the same measure for `O=C(NC1CCNCC1)c1n[nH]cc1NC(=O)c1cnn2ccccc12` [Example 193]: below 20 µM; for `COc1nc(Cl)cc(C)c1C(=O)Nc1c[nH]nc1C(=O)NC1CCNCC1` [Example 195]: below 20 µM; for `CN1CCC(NC(=O)c2n[nH]cc2NC(=O)c2c(F)cc(F)cc2F)CC1` [Example 205]: below 20 µM. Consider `CN1CCN(NC(=O)c2n[nH]cc2NC(=O)c2c(Cl)cccc2Cl)CC1` [Example 207], for which the IC50 was below 20 µM. Still for that read-out and setting: the same measure for `COC1CCC(NC(=O)c2n[nH]cc2NC(=O)c2c(Cl)cccc2Cl)CC1` (centres unmarked) [Example 210]: below 20 µM; for `CN1CCN(c2cc(F)cc(C(=O)Nc3c[nH]nc3C(=O)NC3CCC(C(C)(C)C)CC3)c2)CC1` (centres unmarked) [Example 214]: below 20 µM; for `O=C(N[C@@H]1CN2CCC1CC2)c1n[nH]cc1NC(=O)c1c(F)cccc1F` [Example 216]: below 100 µM.

For `O=C(Nc1cccnc1)c1n[nH]cc1NC(=O)c1c(Cl)cccc1Cl` [Example 218], the IC50 is below 20 µM. Consider `O=C(NC1CCN(CC2CCOC2)CC1)c1n[nH]cc1NC(=O)c1c(Cl)cccc1Cl` (centres unmarked) [Example 219], for which the IC50 is below 20 µM.

As to `O=C(Nc1ccncc1)c1n[nH]cc1NC(=O)c1c(Cl)cccc1Cl` [Example 220], the IC50 is below 20 µM.

On to `O=C(NC1CCN(C2CCOCC2)CC1)c1n[nH]cc1NC(=O)c1c(F)cccc1F` [Example 221], for which the IC50 is below 20 µM. On the same count and under the same terms, with `COc1cccc(F)c1C(=O)Nc1c[nH]nc1C(=O)Nc1cccnc1` [Example 222] the figure was below 20 µM; with `O=C(Nc1cccnc1)c1n[nH]cc1NC(=O)c1c(F)cccc1F` [Example 223], below 20 µM.

The next assay deals with Activated CDK2/CyclinA (Homo sapiens, UniProt P24941). Nature of the assay: Activated CDK2/CyclinA kinase inhibitory activity assay (IC50), Example 250A. The assay is classed as biochemical.
Settings: not given
The method, then: Compounds of the invention were tested for kinase inhibitory activity using the following protocol.
The reaction is allowed to proceed for 2 to 4 hours before being stopped with an excess of ortho-phosphoric acid (5 μl at 2%).
γ^33P-ATP which remains unincorporated into the histone H1 is separated from phosphorylated histone H1 on a Millipore MAPH filter plate. The wells of the MAPH plate are wetted with 0.5% orthophosphoric acid, and then the results of the reaction are filtered with a Millipore vacuum filtration unit through the wells. Following filtration, the residue is washed twice with 200 μl of 0.5% orthophosphoric acid. Once the filters have dried, 20 μl of Microscint 20 scintillant is added, and then counted on a Packard Topcount for 30 seconds.
In the case of `O=C(NC[C@H]1CC[C@H](NC(=O)c2n[nH]cc2NC(=O)c2c(F)cccc2F)CC1)OCc1ccccc1` [Example 130], the IC50 was below 20 µM. For `O=C(Nc1ccccc1)Nc1c[nH]nc1C(=O)N[C@H]1CC[C@H](O)CC1` [Example 156], the IC50 was below 20 µM. Still for that read-out and setting: with `O=C(N[C@H]1CC[C@@H](N2CCOCC2)CC1)c1n[nH]cc1NC(=O)c1c(F)cccc1F` [Example 168] the figure was below 20 µM; with `CC(C)(C)CNC(=O)Nc1c[nH]nc1C(=O)N[C@H]1CC[C@H](O)CC1` [Example 169], below 20 µM.
